Data from ChEMBL document CHEMBL4118239, “Novel leucine ureido derivatives as aminopeptidase N inhibitors using click chemistry” (Bioorg Med Chem, 2018).
The source made the active and inactive calls. The rule behind the calls is not given here.

Assays:
Aminopeptidase N [1] = target: T1, Aminopeptidase N (Homo sapiens, UniProt P15144); assay: Inhibition of APN in human PLC/PRF/5 cells using L-Leu-pnitroanilide as substrate pretreated for 5 mins followed by substrate addition measured after 1 hr; assay type: cell-based
T1 sequence (P15144 whole entry): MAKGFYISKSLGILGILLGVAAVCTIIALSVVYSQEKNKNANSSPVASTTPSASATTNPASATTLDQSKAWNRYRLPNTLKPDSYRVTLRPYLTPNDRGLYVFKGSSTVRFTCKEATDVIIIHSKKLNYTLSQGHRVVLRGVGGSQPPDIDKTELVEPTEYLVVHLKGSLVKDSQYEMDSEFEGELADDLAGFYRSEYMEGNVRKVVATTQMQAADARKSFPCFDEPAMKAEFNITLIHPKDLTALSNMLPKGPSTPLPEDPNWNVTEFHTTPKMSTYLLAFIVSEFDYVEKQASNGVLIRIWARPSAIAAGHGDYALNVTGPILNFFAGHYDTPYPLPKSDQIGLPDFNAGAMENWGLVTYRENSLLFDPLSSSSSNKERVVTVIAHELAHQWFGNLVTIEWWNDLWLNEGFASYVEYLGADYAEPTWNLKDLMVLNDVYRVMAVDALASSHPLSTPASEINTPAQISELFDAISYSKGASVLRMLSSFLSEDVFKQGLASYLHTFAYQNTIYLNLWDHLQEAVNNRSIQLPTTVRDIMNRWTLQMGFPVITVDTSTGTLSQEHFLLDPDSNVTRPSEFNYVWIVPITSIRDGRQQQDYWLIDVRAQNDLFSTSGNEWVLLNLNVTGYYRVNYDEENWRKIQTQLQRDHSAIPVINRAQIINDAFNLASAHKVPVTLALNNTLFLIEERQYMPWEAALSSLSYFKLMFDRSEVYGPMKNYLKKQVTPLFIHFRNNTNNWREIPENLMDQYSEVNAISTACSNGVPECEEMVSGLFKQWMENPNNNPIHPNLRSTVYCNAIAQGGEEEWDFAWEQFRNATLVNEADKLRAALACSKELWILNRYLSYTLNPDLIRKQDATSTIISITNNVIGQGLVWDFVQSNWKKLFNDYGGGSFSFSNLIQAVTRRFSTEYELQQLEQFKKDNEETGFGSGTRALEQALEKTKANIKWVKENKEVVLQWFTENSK

Aminopeptidase N [2] = target: T1, Aminopeptidase N; assay: Inhibition of APN in human ES2 cells using L-Leu-pnitroanilide as substrate pretreated for 5 mins followed by substrate addition measured after 1 hr; assay type: cell-based
Aminopeptidase N [3] = target: T2, Aminopeptidase N (Sus scrofa, UniProt P15145); assay: Inhibition of APN in porcine kidney microsomes using L-Leu-pnitroanilide as substrate pretreated for 5 mins followed by substrate addition measured after 30 mins
T2 sequence (P15145 whole entry): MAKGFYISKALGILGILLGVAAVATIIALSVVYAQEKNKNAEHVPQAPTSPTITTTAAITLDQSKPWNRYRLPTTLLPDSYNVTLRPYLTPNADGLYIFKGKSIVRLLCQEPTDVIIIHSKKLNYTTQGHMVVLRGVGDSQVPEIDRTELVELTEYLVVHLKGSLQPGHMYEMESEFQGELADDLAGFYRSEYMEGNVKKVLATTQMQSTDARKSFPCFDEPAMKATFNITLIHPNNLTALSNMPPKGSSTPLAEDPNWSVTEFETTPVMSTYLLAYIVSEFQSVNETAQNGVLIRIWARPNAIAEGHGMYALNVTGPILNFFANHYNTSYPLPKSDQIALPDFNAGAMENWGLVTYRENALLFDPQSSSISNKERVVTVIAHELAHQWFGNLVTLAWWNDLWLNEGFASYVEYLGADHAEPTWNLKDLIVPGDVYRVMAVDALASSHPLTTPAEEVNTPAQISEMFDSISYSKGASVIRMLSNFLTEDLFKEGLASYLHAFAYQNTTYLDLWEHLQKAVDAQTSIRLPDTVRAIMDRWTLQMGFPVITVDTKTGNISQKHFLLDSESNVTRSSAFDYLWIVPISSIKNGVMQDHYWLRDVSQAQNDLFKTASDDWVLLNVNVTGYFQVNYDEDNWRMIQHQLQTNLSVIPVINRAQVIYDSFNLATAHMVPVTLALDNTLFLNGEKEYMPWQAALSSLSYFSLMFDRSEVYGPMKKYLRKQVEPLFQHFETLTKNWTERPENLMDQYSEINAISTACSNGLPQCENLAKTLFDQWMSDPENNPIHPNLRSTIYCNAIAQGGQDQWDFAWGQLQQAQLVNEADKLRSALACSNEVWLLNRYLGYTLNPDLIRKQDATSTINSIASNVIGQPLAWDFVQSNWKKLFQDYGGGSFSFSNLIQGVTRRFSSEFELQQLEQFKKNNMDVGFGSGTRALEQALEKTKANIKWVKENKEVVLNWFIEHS

HUVEC [4] = assay: Antiangiogenic activity in HUVEC assessed as inhibition of capillary-like tube formation at 100 uM after 4 hrs by matrigel-based assay; assay type: functional, cell-based; settings: Homo sapiens
Thoracic aorta [5] = assay: Antiangiogenic activity in Sprague-Dawley rat thoracic aorta ring assessed as reduction in micro-vessel growth at 100 uM supplemented with fresh medium containing compound every 3 for 9 days measured on day 9 by matrigel-based inverted microscopic analysis; assay type: functional, tissue-based
H22 = assay: Anti-metastatic activity against mouse H22 cells implanted in Kunming mouse assessed as reduction in number of metastatic nodes at 60 mg/kg, ip administered once daily for 12 days measured on day 13 by bouin's staining based assay relative to control; assay type: functional; set-up: scale not given: the % may be the effect or the level left
MDA-MB-231 = assay: Antiproliferative activity against human MDA-MB-231 cells after 48 hrs by MTT assay; settings: MDA-MB-231, 48 h
U-937 = assay: cells; settings: Homo sapiens, U-937, 48 h
Description: Antiproliferative activity against human U937 cells after 48 hrs by MTT assay

PC-3 = assay: cells; settings: Homo sapiens, PC-3, 48 h
HCT-116 = assay: cells; settings: Homo sapiens, HCT-116, 48 h
K562 = assay: cells; settings: Homo sapiens, K562, 48 h
cells = settings: Homo sapiens, ES-2, 48 h
Description: Antiproliferative activity against human ES2 cells after 48 hrs by MTT assay

PLC = assay: cells; settings: Homo sapiens, 48 h
Description: Antiproliferative activity against human PLC cells after 48 hrs by MTT assay

A549 = assay: cells; settings: Homo sapiens, A549, 48 h
Mus musculus [6] = assay: Hepatotoxicity in Kunming mouse implanted with mouse H22 cells at 60 mg/kg, ip administered once daily for 12 days; assay type: toxicity, organism-based; settings: in vivo, 288 h
Mus musculus [7] = assay: Toxicity in Kunming mouse implanted with mouse H22 cells assessed as effect on spleen at 60 mg/kg, ip administered once daily for 12 days; assay type: organism-based; settings: in vivo, 288 h
Thoracic aorta [8] = assay: Antiangiogenic activity in Sprague-Dawley rat thoracic aorta ring assessed as reduction in micro-vessel growth supplemented with fresh medium containing compound every 3 for 9 days measured on day 9 by matrigel-based inverted microscopic analysis; assay type: functional, tissue-based
HUVEC [9] = assay: Antiangiogenic activity in HUVEC assessed as inhibition of capillary-like tube formation after 4 hrs by matrigel-based assay; assay type: functional, cell-based; settings: Homo sapiens
Mus musculus [10] = assay: Toxicity in Kunming mouse implanted with mouse H22 cells assessed as body weight loss at 60 mg/kg, ip administered once daily for 12 days measured every 2 days during compound dosing; assay type: organism-based; settings: in vivo

SMILES	IC50 (Aminopeptidase N [3]) [µM]	further results
COc1ccccc1C(C)n1cc(CNC(=O)N[C@@H](CC(C)C)C(=O)NO)nn1 (stereo partly drawn)	0.55	IC50 (Aminopeptidase N [1]): 12.3 µM; IC50 (Aminopeptidase N [2]): 4.8 µM
CC(C)C[C@H](NC(=O)NCc1cn(Cc2cccc3ccccc23)nn1)C(=O)NO	1.4	–
CC(C)C[C@H](NC(=O)NCc1cn(Cc2ccccc2[N+](=O)[O-])nn1)C(=O)NO	3.4	–
Cc1ccc(Cn2cc(CNC(=O)N[C@@H](CC(C)C)C(=O)NO)nn2)cc1	3.6	–
CC(C)C[C@H](NC(=O)NCc1cn(Cc2cccc(Br)c2)nn1)C(=O)NO	3.5	–
CC(C)C[C@H](NC(=O)NCc1cn(Cc2ccc(C#N)cc2)nn1)C(=O)NO	1.4	–
CCOc1cccc(Cn2cc(CNC(=O)N[C@@H](CC(C)C)C(=O)NO)nn2)c1	0.82	–
CC(C)C[C@H](NC(=O)NCc1cn(Cc2ccc(Br)cc2)nn1)C(=O)NO	7.8	–
COc1cc(Cn2cc(CNC(=O)N[C@@H](CC(C)C)C(=O)NO)nn2)cc(OC)c1OC	1.4	–
CC(C)C[C@H](NC(=O)NCc1cn(Cc2cccc(C#N)c2)nn1)C(=O)NO	7.8	–
CC(C)C[C@H](NC(=O)NCc1cn(Cc2c(Cl)cccc2Cl)nn1)C(=O)NO	0.58	–
Cc1ccccc1Cn1cc(CNC(=O)N[C@@H](CC(C)C)C(=O)NO)nn1	0.76	IC50 (Aminopeptidase N [1]): 20.6 µM; IC50 (Aminopeptidase N [2]): 6.9 µM
O=C(NCc1cn(Cc2ccc(Cl)cc2)nn1)N[C@H](C(=O)NO)c1ccccc1	11.3	–
CCOc1ccc(Cn2cc(CNC(=O)N[C@@H](CC(C)C)C(=O)NO)nn2)cc1	1.5	–
CC(C)C[C@H](NC(=O)NCc1cn(Cc2cccc(Cl)c2)nn1)C(=O)NO	3.1	–
CC(C)C[C@H](NC(=O)[C@@H](O)[C@H](N)Cc1ccccc1)C(=O)O [UBENIMEX]	–	inhibition (HUVEC [4]): Active; Activity (Thoracic aorta [5]): Active; Activity (H22): 64%
CC(C)C[C@H](NC(=O)NCc1cn(Cc2ccccc2N)nn1)C(=O)NO	0.68	–
CC(C)C[C@H](NC(=O)NCc1cn(Cc2cccnc2)nn1)C(=O)NO	2.2	–
CC(C)C[C@H](NC(=O)NCc1cn(Cc2ccccc2)nn1)C(=O)NO	2.1	–
COc1ccc(Cn2cc(CNC(=O)N[C@@H](CC(C)C)C(=O)NO)nn2)cc1OC	2.6	–
CC[C@@H](C)[C@H](NC(=O)NCc1cn(Cc2ccccc2)nn1)C(=O)NO	13.6	–

SMILES	IC50 (Aminopeptidase N [3]) [µM]	further results
CCOc1ccccc1Cn1cc(CNC(=O)N[C@@H](CC(C)C)C(=O)NO)nn1	0.44	IC50 (Aminopeptidase N [1]): 5 µM; IC50 (Aminopeptidase N [2]): 2.1 µM
CC(C)C[C@H](NC(=O)NCc1cn(CCc2ccccc2)nn1)C(=O)NO	3.6	–
CC(C)C[C@H](NC(=O)NCc1cn(Cc2cccc(OCc3ccccc3)c2)nn1)C(=O)NO	0.24	IC50 (Aminopeptidase N [1]): 4.9 µM; IC50 (MDA-MB-231): 72.6 µM; IC50 (U-937): 70.3 µM; IC50 (PC-3): 123 µM; IC50 (Aminopeptidase N [2]): 0.87 µM; IC50 (HCT-116): 130 µM; IC50 (K562): 99.8 µM; IC50 (cells): 108 µM; IC50 (PLC): 112 µM; IC50 (A549): 128 µM
CC(C)C[C@H](NC(=O)NCc1cn(C(c2ccccc2)c2ccccc2)nn1)C(=O)NO	2.3	–
CC(C)C[C@H](NC(=O)NCc1cn(C/C=C/c2ccccc2)nn1)C(=O)NO	2.2	–
CC(C)C[C@H](NC(=O)NCc1cn(Cc2ccccc2Cl)nn1)C(=O)NO	0.67	–
COc1ccc(Cn2cc(CNC(=O)N[C@@H](CC(C)C)C(=O)NO)nn2)cc1	1.9	–
COc1cccc(OC)c1Cn1cc(CNC(=O)N[C@@H](CC(C)C)C(=O)NO)nn1	0.47	–
CC(C)C[C@H](NC(=O)NCc1cn(Cc2cccc([N+](=O)[O-])c2)nn1)C(=O)NO	1.7	–
CC(C)C[C@H](NC(=O)NCc1cn(Cc2ccccc2OCc2ccccc2)nn1)C(=O)NO	0.089	Activity (Mus musculus [6]): Non-Toxic; IC50 (Aminopeptidase N [1]): 1.3 µM; Activity (Mus musculus [7]): Non-Toxic; IC50 (MDA-MB-231): 72.5 µM; IC50 (U-937): 68.4 µM; IC50 (PC-3): 119 µM; IC50 (Aminopeptidase N [2]): 0.74 µM; IC50 (HCT-116): 81.2 µM; IC50 (K562): 85 µM; Activity (Thoracic aorta [8]): Dose-dependent effect; IC50 (cells): 105 µM; inhibition (HUVEC [9]): Dose-dependent effect; Activity (H22): 71%; Activity (Mus musculus [10]): Non-Toxic; IC50 (PLC): 92.8 µM; IC50 (A549): 90 µM
CC(C)C[C@H](NC(=O)NCc1cn(Cc2ccccc2Br)nn1)C(=O)NO	0.88	–
CC(C)C[C@H](NC(=O)NCc1cn(Cc2ccc3ccccc3c2)nn1)C(=O)NO	3.9	–
CC(C)C[C@H](NC(=O)NCc1cn(C(C)c2ccccc2)nn1)C(=O)NO (stereo partly drawn)	1.9	–
CC(C)C[C@H](NC(=O)NCc1cn(Cc2cccc(N)c2)nn1)C(=O)NO	3.7	–
CC(C)C[C@H](NC(=O)NCc1cn(Cc2ccc(Cl)c(Cl)c2)nn1)C(=O)NO	5.5	–
Cc1cccc(Cn2cc(CNC(=O)N[C@@H](CC(C)C)C(=O)NO)nn2)c1	2.2	–
COc1cccc(Cn2cc(CNC(=O)N[C@@H](CC(C)C)C(=O)NO)nn2)c1	0.91	–
CC(C)C[C@H](NC(=O)NCc1cn(Cc2ccc([N+](=O)[O-])cc2)nn1)C(=O)NO	1	–
CC(C)C[C@H](NC(=O)NCc1cn(Cc2ccc(Cl)cc2)nn1)C(=O)NO	6.9	–
COc1ccccc1Cn1cc(CNC(=O)N[C@@H](CC(C)C)C(=O)NO)nn1	0.65	IC50 (Aminopeptidase N [1]): 15.3 µM; IC50 (Aminopeptidase N [2]): 6.5 µM
Cc1cccc(C)c1Cn1cc(CNC(=O)N[C@@H](CC(C)C)C(=O)NO)nn1	0.39	–
